Measured values taken from patent US20080279961A1, “TELOMERE TARGETING AGENTS AS STEM CELLS DIRECTED TREATMENTS” (priority 2007, published 2008).

Legend:
[1] = test system: human cord blood mononuclear cells; assay: methylcellulose colony assay; type: cell-based
Protocol: The UXF1138L uterus carcinoma cell line was originally established from a patient tumor by Prof. Heiner Fiebig at the University of Freiburg, Germany (Fiebig and Burger, 2001). All animal experiments were conducted under an animal license approved by the German Federal Government (Regierungspräsidium Freiburg) and in compliance with the UKCCCR guidelines on experimental neoplasia (Workman et al., 1998). Six to eight weeks old female thymus aplastic nude mice of NMRI genetic background were used for establishment and serial propagation of the human tumor xenograft from the cell line. PC3 and MCF-7 cells were obtained from American Type Culture Collection, Manassas, Va. The HEK293T human embryonic kidney cell line was a kind gift from Dr. Arun Seth, Sunnybrook Health Sciences Centre, Toronto, CA. Umbellical vein cord blood was freshly obtained from a hospital maternity ward with the consent of the respective patient, specimens were anonymized. The cord blood was collected into a BD Vacutainer CPT™ and the mononuclear fraction isolated by centrifugation following the manufacturers instructions.
In human tumor stem cell assay (HTCA)/clonogenic assay, single cell suspensions from in vivo studies above were washed in medium and passed through sieves and the resulting single cell suspensions seeded into soft agar (n=3 tumors per group) as described by us before (Fiebig et al., 2004). Single cell suspensions of cell lines were prepared by trypsinization from cells growing as monolayers on plastic. Briefly, 5,000 (HEK293T cells), 10,000 (PC3, MCF-7 and UXF1138L cells) or 50,000 (UXF1138L tumor tissue) vital cells were added to 0.2 ml Iscove's medium/20% fetal bovine serum/0.05% gentamycin containing 0.4% agar and plated on top of a base layer consisting of 0.2 ml medium with 0.75% agar. The next day, the agar layers were fed with Isocve's medium and cultures incubated at 37° C., 7% CO2 for approximately 11 days. Vital colonies were stained with 2-(4-iodophenyl)-3-(4-nitrophenyl)-5-phenyltetrazolium chloride (1 mg/ml) 24 hrs before evaluation, and colonies >70 μm were counted with an automated image analysis system (Omincon FAS IV, BIOSYS GmbH, Karben, Germany). Drug effect was assessed as growth inhibitory concentrations 50 and 70% (IC50, IC70). Methylcellulose was used to grow cord blood stem cells instead of soft agar. The seeding density was 20,000 cells/well. Stem cell growth factor supplemented and optimized methylcellulose (Methocult H4434) was purchased from Stem Cell Technologies (Vancouver, CA). Methylcellulose lacking growth factors was used as negative growth control. Statistical significance between treatment groups was evaluated by using the Student T-test. […]

[2] = water solubility; type: physicochemical
Description: RHPS4 was synthesized as described (Heald et al 2002). RHPS4 is water-soluble and was therefore dissolved in phosphate buffered saline (PBS). For in vitro studies paclitaxel (Taxol) was purchased from Sigma (St. Louis, Mo.) and dissolved in dimethylsulfoxide (DMSO); for in vivo experiments the clinical formulation was used and obtained Cremophor from Bristol-Myers Squibb, New York, N.Y.

[3] = tolerability in xenograft studies (body weight, deaths, MTD)
Protocol: For the first in vivo experiment, tumor fragments (5×5 mm) from untreated donor animals were implanted subcutaneously into both flanks of recipient mice. Treatment was initiated 6 days after transplantation (=day 0, median tumor volume of ˜70 mm^3). Animals were randomized into groups following Lindner's randomization tables and treated by oral gavage with 5 mg/kg/d RHPS4 or vehicle (phosphate buffered saline) respectively (n=5-8 animals per group). […] Drug administration was repeated twice weekly for 8 times (Q3dx8) after randomization. Tumor growth was followed twice weekly by serial caliper measurement, body weights were recorded, and tumor volumes were calculated using the standard formula (length×width^2)/2, where length is the largest dimension and width the smallest dimension perpendicular to the length (Alley et al., 2004; Geran et al., 1972). The median relative tumor volume was plotted against time. Relative tumor volumes were calculated for each single tumor by dividing the tumor volume on day X by that on day 0 (time of randomization). Growth curves were analyzed in terms of tumor inhibition (treated/control, T/C, calculated as median tumor weight of treated divided by median tumor weight of control animals times 100). Statistical data analysis was done using non-parametrical Wilcoxon Mann-Whitney statistics. Median relative tumor volumes of each treatment group were compared with those of the vehicle control groups. P values less than 0.05 were considered statistically significant. SPSS 2000, SYSTAT version 10 software was used.
To conduct combination treatment with Paclitaxel, after 4 serial propagations of RHPS4 treated tumor tissue in nude mice (FIG. 1), RHPS4 was combined with Paclitaxel. Single agent Paclitaxel was given at 20 mg/kg i.v. on days 1 and 15. In combination with RHPS4 (given at 5 mg/kg p.o. twice weekly), only a single dose of Paclitaxel (20 mg/kg i.v.) was administered on day 1. Tumor growth parameters and body weight were assessed as described above.

[4] = test system: UXF1138L tumor tissue; assay: HTCA/clonogenic growth of in vivo treated xenograft tissue; set-up: species or system nude mice; conditions: for HTCA growth [%]: control set 100%
Protocol: Upon termination of the experiment, which was when tumors reached a volume of 1.5 cm in diameter (day 28), RHPS4 treated tumor tissue and control tumors were excised, minced and digested using a mixture of collagenase (123 U/ml), DNase (375 U/ml), and hyaluronidase (290 U/ml) in RPMI 1640 medium at 37° C. for 3 hrs. All enzymes were purchased from Roche, Indianapolis Ind.). Primary cultures as well as clonogenic growth assays were prepared from the resulting single cell suspensions. Primary cultures were used for analysis of telomere length. In addition, RHPS4 treated tumors (5 mg/kg/d) and control were propagated into new animals for up to three times. The control mouse group was always derived from untreated tumor fragments, but from the same initial passage as were the RHPS4 treated tumors (FIG. 1B).
In human tumor stem cell assay (HTCA)/clonogenic assay, single cell suspensions from in vivo studies above were washed in medium and passed through sieves and the resulting single cell suspensions seeded into soft agar (n=3 tumors per group) as described by us before (Fiebig et al., 2004). Single cell suspensions of cell lines were prepared by trypsinization from cells growing as monolayers on plastic. Briefly, 5,000 (HEK293T cells), 10,000 (PC3, MCF-7 and UXF1138L cells) or 50,000 (UXF1138L tumor tissue) vital cells were added to 0.2 ml Iscove's medium/20% fetal bovine serum/0.05% gentamycin containing 0.4% agar and plated on top of a base layer consisting of 0.2 ml medium with 0.75% agar. The next day, the agar layers were fed with Isocve's medium and cultures incubated at 37° C., 7% CO2 for approximately 11 days. Vital colonies were stained with 2-(4-iodophenyl)-3-(4-nitrophenyl)-5-phenyltetrazolium chloride (1 mg/ml) 24 hrs before evaluation, and colonies >70 μm were counted with an automated image analysis system (Omincon FAS IV, BIOSYS GmbH, Karben, Germany). Drug effect was assessed as growth inhibitory concentrations 50 and 70% (IC50, IC70). Methylcellulose was used to grow cord blood stem cells instead of soft agar. The seeding density was 20,000 cells/well. Stem cell growth factor supplemented and optimized methylcellulose (Methocult H4434) was purchased from Stem Cell Technologies (Vancouver, CA). Methylcellulose lacking growth factors was used as negative growth control. Statistical significance between treatment groups was evaluated by using the Student T-test.

With `COS(=O)(=O)[O-].Cc1cc2c3c([n+](C)c4ccc(F)cc4c3c1)-c1cc(F)ccc1N2C` [RHPS4, 3,11-difluoro-6,8,13-trimethyl-8H-quino[4,3,2-kl]acridinium methosulfate] the “stimulation of growth, number of colonies compared to vehicle” value ([1]; 0.1 and 1 mircoM RHPS4, cord blood) was “doubling to tripling the number of colonies”, the “RHPS4 concentrations that inhibited colony formation” value ([1]; cord blood cells) was over 1 mircoM and the “drug concentration at which cell kill of normal stem cells was seen” value ([1]; cord blood colony forming units) was about 10 mircoM. For the same compound, the “least percentage (cut-off level) of growth induction” value ([1]; individual cord blood experiments, % of control growth) was at least 150%, the solubility in water [2] was “water-soluble” and the “Deaths [n/n], drug related death per mice per group” value (from here on “Deaths [n/n] … per group”) ([3]; Passage #1) was 0/5. For the same compound, the “Deaths [n/n] … per group” value ([3]; Passage #2) was 0/6, the “Deaths [n/n] … per group” value ([3]; Passage #3) was 0/8 and the “Deaths [n/n] … per group” value ([3]; Passage #4) was 0/5. The tolerability ([3]; mouse, in vivo) was “well tolerated”, the “1/2 maximal tolerated dose” value ([3]; oral, mouse strain used) was 5 mg/kg/day and the “inhibition of colony forming units in the same tumor tissues” value ([4]; Passage 3) was 54%±6.6. For the same compound, the “HTCA growth [%]” value ([4]; Passage #1) was 83 ± 2.3%, the “HTCA growth [%]” value ([4]; Passage #2) was 93 ± 2.3% and the “HTCA growth [%]” value ([4]; Passage #3) was 54.5 ± 6.6%. The “HTCA growth [%]” value ([4]; Passage #4) was 44 ± 6.4% and the “clonogenicity of RHPS4 treated tumor tissue in soft agar tumor stem cell assay” value ([4]; passages 1-4) was “marked reduction in clonogenicity”.
